# Test results as given in patent US20260256792A1, “TREATMENT OF CHRONIC SPONTANEOUS URTICARIA BY ADMINISTERING (R)-2-[3-[4-AMINO-3-(2-FLUORO-4-PHENOXY-PHENYL)PYRAZOLO[3,4-D]PYRIMIDIN-1-YL]PIPERIDINE-1-CARBONYL]-4-METHYL-4-[4-(OXETAN-3-YL)PIPERAZIN-1-YL]PENT-2-ENENITRILE” (priority 2023, published 2026).
# System: moderate-to-severe chronic spontaneous urticaria (CSU)
# Assay: Phase 2 CSU study: itch severity score over 7 days (ISS7)
# Format: in vivo, human
# Conditions: ITT
# Description: The study comprises a 12 week, randomized, double-blind, placebo-controlled, multi-center, dose-ranging efficacy and safety phase, followed by a 40 week open label extension (OLE) phase (see FIG. 1). The study consists of three phases and an optional OLE phase. […] Clinically, CSU is characterized by the spontaneous and recurrent appearance of pruritic hives. The proposed primary endpoints were the UAS7 at Week 12 in EU and EU reference countries and the ISS7 in the US. Regardless of where a participant was from, all assessments were the same. The UAS7 score is a composite score containing both the HSS7 and the ISS7. This allowed a global assessment of the two key components of urticaria: hives and itch. […] The UAS is a validated PRO measure. […] The daily UAS scores range from 0 to 6 point/day. […] Patients were to complete the UAS using the e-diary. […] The following secondary endpoints were to be analyzed using the same approach as for the primary endpoint: • Change from baseline in UAS7 at Week 4 • Change from baseline in UAS7 at Week 12 (for US and US reference countries) • Change from baseline in ISS7 at Week 12 (except US and US reference countries) • Change from baseline in HSS7 at Week 12
structure (smiles),measurement,setting,value
"CC(C)(C=C(C#N)C(=O)N1CCC[C@@H](n2nc(-c3ccc(Oc4ccccc4)cc3F)c3c(N)ncnc32)C1)N1CCN(C2COC2)CC1 [rilzabrutinib, (R)-2-[3-[4-amino-3-(2-fluoro-4-phenoxy-phenyl)pyrazolo[3,4-d]pyrimidin-1-yl]piperidine-1-carbonyl]-4-methyl-4-[4-(oxetan-3-yl)piperazin-1-yl]pent-2-enenitrile]",ISS7 Change difference for rilzabrutinib vs. placebo LS Mean (95% CI),"400 mg BID, Week 2",−2.27
same,ISS7 Change from baseline LS Mean (SE),"400 mg BID, Week 2",−5.68 (0.80)
same,ISS7 Post-baseline Mean (SD),"400 mg BID, Week 2",10.40 (5.75)
same,ISS7 % Change difference for rilzabrutinib vs. placebo LS Mean (95% CI),"400 mg BID, Week 3",−18.44%
same,ISS7 % Change from baseline LS Mean (SE),"400 mg BID, Week 3",−40.88 (5.26) %
same,ISS7 Change difference for rilzabrutinib vs. placebo LS Mean (95% CI),"400 mg BID, Week 3",−2.60
same,ISS7 Change from baseline LS Mean (SE),"400 mg BID, Week 3",−6.68 (0.84)
same,ISS7 Post-baseline Mean (SD),"400 mg BID, Week 3",9.21 (6.17)
same,ISS7 % Change difference for rilzabrutinib vs. placebo LS Mean (95% CI),"400 mg BID, Week 4",−18.54%
same,ISS7 % Change from baseline LS Mean (SE),"400 mg BID, Week 4",−44.30 (5.62) %
same,ISS7 Change difference for rilzabrutinib vs. placebo LS Mean (95% CI),"400 mg BID, Week 4",−2.62
same,ISS7 Change from baseline LS Mean (SE),"400 mg BID, Week 4",−7.24 (0.89)
same,ISS7 Post-baseline Mean (SD),"400 mg BID, Week 4",8.12 (6.28)
same,ISS7 % Change difference for rilzabrutinib vs. placebo LS Mean (95% CI),"400 mg BID, Week 5",−9.84%
same,ISS7 % Change from baseline LS Mean (SE),"400 mg BID, Week 5",-43.1%
same,ISS7 Change difference for rilzabrutinib vs. placebo LS Mean (95% CI),"400 mg BID, Week 5",−1.32
same,ISS7 Change from baseline LS Mean (SE),"400 mg BID, Week 5",−6.89 (0.88)
same,ISS7 Post-baseline Mean (SD),"400 mg BID, Week 5",8.53 (6.95)
same,ISS7 % Change difference for rilzabrutinib vs. placebo LS Mean (95% CI),"400 mg BID, Week 6",−13.75%
same,ISS7 % Change from baseline LS Mean (SE),"400 mg BID, Week 6",−42.18 (5.84) %
same,ISS7 Change difference for rilzabrutinib vs. placebo LS Mean (95% CI),"400 mg BID, Week 6",−1.99
same,ISS7 Change from baseline LS Mean (SE),"400 mg BID, Week 6",−6.87 (0.93)
same,ISS7 Post-baseline Mean (SD),"400 mg BID, Week 6",8.62 (6.58)
same,ISS7 % Change difference for rilzabrutinib vs. placebo LS Mean (95% CI),"400 mg BID, Week 7",−18.93%
same,ISS7 % Change from baseline LS Mean (SE),"400 mg BID, Week 7",−47.79 (5.68) %
same,ISS7 Change difference for rilzabrutinib vs. placebo LS Mean (95% CI),"400 mg BID, Week 7",−2.77
same,ISS7 Change from baseline LS Mean (SE),"400 mg BID, Week 7",−7.77 (0.91)
same,ISS7 Post-baseline Mean (SD),"400 mg BID, Week 7",8.03 (6.39)
same,ISS7 % Change difference for rilzabrutinib vs. placebo LS Mean (95% CI),"400 mg BID, Week 8",−20.00%
same,ISS7 % Change from baseline LS Mean (SE),"400 mg BID, Week 8",−52.80 (5.92) %
same,ISS7 Change difference for rilzabrutinib vs. placebo LS Mean (95% CI),"400 mg BID, Week 8",−2.86
same,ISS7 Change from baseline LS Mean (SE),"400 mg BID, Week 8",−8.47 (0.93)
same,ISS7 Post-baseline Mean (SD),"400 mg BID, Week 8",7.18 (6.69)
same,ISS7 % Change difference for rilzabrutinib vs. placebo LS Mean (95% CI),"400 mg BID, Week 9",−20.94%
same,ISS7 % Change from baseline LS Mean (SE),"400 mg BID, Week 9",−51.80 (5.94) %
same,ISS7 Change difference for rilzabrutinib vs. placebo LS Mean (95% CI),"400 mg BID, Week 9",−2.77
same,ISS7 Change from baseline LS Mean (SE),"400 mg BID, Week 9",−8.27 (0.96)
same,ISS7 Post-baseline Mean (SD),"400 mg BID, Week 9",7.44 (7.20)
same,ISS7 % Change difference for rilzabrutinib vs. placebo LS Mean (95% CI),"400 mg BID, Week 10",−10.95%
same,ISS7 % Change from baseline LS Mean (SE),"400 mg BID, Week 10",−48.75 (6.31) %
same,ISS7 Change difference for rilzabrutinib vs. placebo LS Mean (95% CI),"400 mg BID, Week 10",−1.72
same,ISS7 Change from baseline LS Mean (SE),"400 mg BID, Week 10",−8.01 (1.01)
same,ISS7 Post-baseline Mean (SD),"400 mg BID, Week 10",8.06 (7.29)
same,ISS7 % Change difference for rilzabrutinib vs. placebo LS Mean (95% CI),"400 mg BID, Week 11",−15.82%
same,ISS7 % Change from baseline LS Mean (SE),"400 mg BID, Week 11",−49.45 (6.23) %
same,ISS7 Change difference for rilzabrutinib vs. placebo LS Mean (95% CI),"400 mg BID, Week 11",−2.07
same,ISS7 Change from baseline LS Mean (SE),"400 mg BID, Week 11",−7.93 (0.99)
same,ISS7 Post-baseline Mean (SD),"400 mg BID, Week 11",7.76 (7.01)
same,ISS7 % Change difference for rilzabrutinib vs. placebo LS Mean (95% CI),"400 mg BID, Week 12",−13.69%
same,ISS7 % Change from baseline LS Mean (SE),"400 mg BID, Week 12",−50.27 (6.54) %
same,ISS7 Change difference for rilzabrutinib vs. placebo LS Mean (95% CI),"400 mg BID, Week 12",−1.75
same,ISS7 Change from baseline LS Mean (SE),"400 mg BID, Week 12",−8.06 (1.02)
same,ISS7 Post-baseline Mean (SD),"400 mg BID, Week 12",7.61 (7.18)
same,ISS7 % Change difference for rilzabrutinib vs. placebo LS Mean (95% CI),"400 mg QPM, Week 1",−8.87%
same,ISS7 % Change from baseline LS Mean (SE),"400 mg QPM, Week 1",−19.33 (5.35) %
same,ISS7 Change difference for rilzabrutinib vs. placebo LS Mean (95% CI),"400 mg QPM, Week 1",−1.47
same,ISS7 Change from baseline LS Mean (SE),"400 mg QPM, Week 1",−3.47 (0.79)
same,ISS7 Post-baseline Mean (SD),"400 mg QPM, Week 1",13.08 (4.46)
same,ISS7 % Change difference for rilzabrutinib vs. placebo LS Mean (95% CI),"400 mg QPM, Week 2",−5.64%
same,ISS7 % Change from baseline LS Mean (SE),"400 mg QPM, Week 2",−25.13 (5.32) %
same,ISS7 Change difference for rilzabrutinib vs. placebo LS Mean (95% CI),"400 mg QPM, Week 2",−0.86
same,ISS7 Change from baseline LS Mean (SE),"400 mg QPM, Week 2",−4.27 (0.81)
same,ISS7 Post-baseline Mean (SD),"400 mg QPM, Week 2",12.44 (4.70)
same,ISS7 % Change difference for rilzabrutinib vs. placebo LS Mean (95% CI),"400 mg QPM, Week 3",−7.34%
same,ISS7 % Change from baseline LS Mean (SE),"400 mg QPM, Week 3",−29.78 (5.33) %
same,ISS7 Change difference for rilzabrutinib vs. placebo LS Mean (95% CI),"400 mg QPM, Week 3",−0.97
same,ISS7 Change from baseline LS Mean (SE),"400 mg QPM, Week 3",−5.06 (0.85)
same,ISS7 % Change difference for rilzabrutinib vs. placebo LS Mean (95% CI),"400 mg QPM, Week 4",−5.09%
same,ISS7 % Change from baseline LS Mean (SE),"400 mg QPM, Week 4",−30.86 (5.64) %
same,ISS7 Change difference for rilzabrutinib vs. placebo LS Mean (95% CI),"400 mg QPM, Week 4",−0.67
same,ISS7 Change from baseline LS Mean (SE),"400 mg QPM, Week 4",−5.29 (0.90)
same,ISS7 Post-baseline Mean (SD),"400 mg QPM, Week 4",11.30 (4.76)
same,ISS7 % Change difference for rilzabrutinib vs. placebo LS Mean (95% CI),"400 mg QPM, Week 5",0.86%
same,ISS7 % Change from baseline LS Mean (SE),"400 mg QPM, Week 5",−32.42 (5.42) %
same,ISS7 Change difference for rilzabrutinib vs. placebo LS Mean (95% CI),"400 mg QPM, Week 5",0.08
same,ISS7 Change from baseline LS Mean (SE),"400 mg QPM, Week 5",−5.48 (0.88)
same,ISS7 Post-baseline Mean (SD),"400 mg QPM, Week 5",11.00 (4.61)
same,ISS7 % Change difference for rilzabrutinib vs. placebo LS Mean (95% CI),"400 mg QPM, Week 6",−8.64%
same,ISS7 % Change from baseline LS Mean (SE),"400 mg QPM, Week 6",−37.07 (5.96) %
same,ISS7 Change difference for rilzabrutinib vs. placebo LS Mean (95% CI),"400 mg QPM, Week 6",−1.39
same,ISS7 Change from baseline LS Mean (SE),"400 mg QPM, Week 6",−6.28 (0.95)
same,ISS7 Post-baseline Mean (SD),"400 mg QPM, Week 6",10.23 (5.19)
same,ISS7 % Change difference for rilzabrutinib vs. placebo LS Mean (95% CI),"400 mg QPM, Week 7",−9.66%
same,ISS7 % Change from baseline LS Mean (SE),"400 mg QPM, Week 7",−38.52 (5.84) %
same,ISS7 Change difference for rilzabrutinib vs. placebo LS Mean (95% CI),"400 mg QPM, Week 7",−1.37
same,ISS7 Change from baseline LS Mean (SE),"400 mg QPM, Week 7",−6.37 (0.93)
same,ISS7 Post-baseline Mean (SD),"400 mg QPM, Week 7",10.60 (5.27)
same,ISS7 % Change difference for rilzabrutinib vs. placebo LS Mean (95% CI),"400 mg QPM, Week 8",−5.60%
same,ISS7 % Change from baseline LS Mean (SE),"400 mg QPM, Week 8",−38.39 (6.03) %
same,ISS7 Change difference for rilzabrutinib vs. placebo LS Mean (95% CI),"400 mg QPM, Week 8",−0.61
same,ISS7 Change from baseline LS Mean (SE),"400 mg QPM, Week 8",−6.22 (0.96)
